One assay has as its target JH2 domain of human Tyk2 (Homo sapiens (Human), UniProt P29597). The assay is described as follows: JH2 Biochemical Assay (TR-FRET probe displacement). The class given is binding. For orientation: TR-FRET usually uses a lanthanide donor and a delayed reading to cut background.
The target in the next assay is Tyk2 (Homo sapiens (Human), UniProt P29597). The assay can be described thus: pSTAT4 Cell Assay (MSD, NK92 cells). The format is cell-based.
[1] abbreviates: JH2 domain of human Tyk2, TR-FRET probe displacement.
[2] abbreviates: TR-FRET probe displacement, JH2 domain of human Tyk2.

Like-named read-outs stand apart in the source and are kept apart here.

Tyk2, sequence (P29597 whole entry, the tested form may be a part): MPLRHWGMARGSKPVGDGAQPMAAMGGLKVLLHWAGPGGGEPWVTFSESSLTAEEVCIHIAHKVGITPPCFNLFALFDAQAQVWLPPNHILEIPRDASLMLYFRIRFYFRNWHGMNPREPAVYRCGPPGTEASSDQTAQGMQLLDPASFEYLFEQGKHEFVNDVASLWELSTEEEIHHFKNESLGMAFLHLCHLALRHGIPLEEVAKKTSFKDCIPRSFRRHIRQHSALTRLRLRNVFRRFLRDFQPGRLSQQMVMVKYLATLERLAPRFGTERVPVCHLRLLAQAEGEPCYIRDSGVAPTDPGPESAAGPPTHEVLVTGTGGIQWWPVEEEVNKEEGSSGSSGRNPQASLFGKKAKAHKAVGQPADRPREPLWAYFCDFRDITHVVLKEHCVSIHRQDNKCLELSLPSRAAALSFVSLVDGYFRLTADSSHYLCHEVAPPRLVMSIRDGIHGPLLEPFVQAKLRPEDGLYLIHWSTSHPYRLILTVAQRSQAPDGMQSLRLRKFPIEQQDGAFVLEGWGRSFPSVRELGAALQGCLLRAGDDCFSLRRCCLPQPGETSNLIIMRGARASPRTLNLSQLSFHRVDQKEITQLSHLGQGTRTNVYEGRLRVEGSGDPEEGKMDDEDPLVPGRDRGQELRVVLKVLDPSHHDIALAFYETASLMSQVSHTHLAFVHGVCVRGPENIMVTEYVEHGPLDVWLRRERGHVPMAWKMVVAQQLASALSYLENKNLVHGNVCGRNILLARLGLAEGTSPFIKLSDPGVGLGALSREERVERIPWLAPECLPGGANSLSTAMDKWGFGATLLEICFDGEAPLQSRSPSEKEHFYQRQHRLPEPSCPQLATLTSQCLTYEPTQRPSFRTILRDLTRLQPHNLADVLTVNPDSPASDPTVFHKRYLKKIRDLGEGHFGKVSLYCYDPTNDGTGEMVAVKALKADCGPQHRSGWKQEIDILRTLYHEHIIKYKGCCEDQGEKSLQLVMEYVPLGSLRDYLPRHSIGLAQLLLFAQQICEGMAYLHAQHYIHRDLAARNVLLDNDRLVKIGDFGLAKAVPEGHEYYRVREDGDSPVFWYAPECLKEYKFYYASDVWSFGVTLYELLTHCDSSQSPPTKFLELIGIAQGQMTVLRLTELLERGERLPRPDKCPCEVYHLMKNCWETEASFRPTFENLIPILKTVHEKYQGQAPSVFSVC
JH2 domain of human Tyk2, sequence (P29597 575-876): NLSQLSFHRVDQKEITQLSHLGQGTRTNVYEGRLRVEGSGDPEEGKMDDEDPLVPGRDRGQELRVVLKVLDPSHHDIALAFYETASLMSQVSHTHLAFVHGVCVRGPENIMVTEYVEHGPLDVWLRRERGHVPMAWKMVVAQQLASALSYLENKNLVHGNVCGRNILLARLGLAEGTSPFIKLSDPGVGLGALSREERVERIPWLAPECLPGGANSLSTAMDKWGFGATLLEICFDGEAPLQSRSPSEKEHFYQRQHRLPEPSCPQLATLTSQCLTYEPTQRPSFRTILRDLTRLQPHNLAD

For `CC(=O)Nc1cc(Nc2cc(C)nc(C(C)(F)F)n2)c(OCc2cc(C)on2)cn1` [Example 497, N-(4-((2-(1,1-difluoroethyl)-6-methylpyrimidin-4-yl)amino)-5-((5-methylisoxazol-3-yl)methoxy)pyridin-2-yl)acetamide], the IC50 on JH2 domain of human Tyk2 (setting [1]) is no more than 10 nM; against Tyk2 (MSD), 10 to 100 nM.

`CCn1ncc(-c2cnc(NC(C)=O)cc2Nc2ccnc(C(C)(F)F)n2)n1` [Example 709, N-(4-((2-(1,1-difluoroethyl)pyrimidin-4-yl)amino)-5-(2-ethyl-2H-1,2,3-triazol-4-yl)pyridin-2-yl)acetamide]: the IC50 was no more than 10 nM at JH2 domain of human Tyk2 (setting [1]) and 10 to 100 nM against Tyk2 (MSD).

Take `CCc1cc(Nc2cc(NC(C)=O)ncc2-c2nc(C)no2)nc(C(C)(F)F)n1` [Example 281, N-(4-((2-(1,1-difluoroethyl)-6-ethylpyrimidin-4-yl)amino)-5-(3-methyl-1,2,4-oxadiazol-5-yl)pyridin-2-yl)acetamide]: the IC50 on JH2 domain of human Tyk2 (setting [2]) is no more than 10 nM; against Tyk2 (MSD), 10 to 100 nM.

In the case of `COCCOc1cc(Nc2cc(NC(C)=O)ncc2-c2ccncn2)nc(C(C)(F)F)n1` [Example 585, N-(4-((2-(1,1-difluoroethyl)-6-(2-methoxyethoxy)pyrimidin-4-yl)amino)-5-(pyrimidin-4-yl)pyridin-2-yl)acetamide], the IC50 at JH2 domain of human Tyk2 (setting [1]) and at Tyk2 (MSD) was no more than 10 nM each time.

With `COCCOc1cnc(NC(C)=O)cc1Nc1cncc(C(C)(C)F)n1` [Example 439, N-(4-((6-(2-fluoropropan-2-yl)pyrazin-2-yl)amino)-5-(2-methoxyethoxy)pyridin-2-yl)acetamide], the IC50 at JH2 domain of human Tyk2 (setting [1]) is no more than 10 nM; at Tyk2 (MSD), 10 to 100 nM.

Take `COc1cnc(NC(C)=O)cc1Nc1cc(-c2cnn(C(C)C)c2F)nc(C(C)(F)F)n1` [Example 383, N-(4-((2-(1,1-difluoroethyl)-6-(5-fluoro-1-isopropyl-1H-pyrazol-4-yl)pyrimidin-4-yl)amino)-5-methoxypyridin-2-yl)acetamide]: the IC50 on JH2 domain of human Tyk2 (setting [1]) and against Tyk2 (MSD) was 10 to 100 nM throughout.

Regarding `COCCn1cc(-c2cc(Nc3cc(NC(C)=O)ncc3OC)nc(C(C)(F)F)n2)cn1` [Example 386, N-(4-((2-(1,1-difluoroethyl)-6-(1-(2-methoxyethyl)-1H-pyrazol-4-yl)pyrimidin-4-yl)amino)-5-methoxypyridin-2-yl)acetamide], the IC50 is no more than 10 nM at JH2 domain of human Tyk2 (setting [1]) and 10 to 100 nM at Tyk2 (MSD).

In the case of `CC(=O)Nc1cc(Nc2cc(C)nc(C(C)(F)F)n2)c(-c2ncns2)cn1` [Example 235, N-(4-((2-(1,1-difluoroethyl)-6-methylpyrimidin-4-yl)amino)-5-(1,2,4-thiadiazol-5-yl)pyridin-2-yl)acetamide], the IC50 on JH2 domain of human Tyk2 (setting [2]) and on Tyk2 (MSD) was no more than 10 nM each time.

With `CC(=O)Nc1cc(Nc2cc(C)nc(C(C)(F)F)n2)c(-c2ccc3nccn3n2)cn1` [Example 680, N-(4-((2-(1,1-difluoroethyl)-6-methylpyrimidin-4-yl)amino)-5-(imidazo[1,2-b]pyridazin-6-yl)pyridin-2-yl)acetamide], the IC50 at JH2 domain of human Tyk2 (setting [1]) was no more than 10 nM; at Tyk2 (MSD) it was 10 to 100 nM.

Turning to `COc1cnc(NC(C)=O)cc1Nc1cc(-c2ccncc2F)nc(C(C)(F)F)n1` [Example 373, N-(4-((2-(1,1-difluoroethyl)-6-(3-fluoropyridin-4-yl)pyrimidin-4-yl)amino)-5-methoxypyridin-2-yl)acetamide], the IC50 at JH2 domain of human Tyk2 (setting [1]) was no more than 10 nM; against Tyk2 (MSD), 10 to 100 nM.

Regarding `CC(=O)Nc1cc(Nc2ccnc(C(C)(F)F)n2)c(-c2ccc(CNC3CCOCC3)cn2)cn1` [Example 883], the IC50 on JH2 domain of human Tyk2 (TR-FRET probe displacement, JH2 domain) was no more than 10 nM; at Tyk2 it was no more than 10 nM.

In the case of `CC(=O)Nc1cc(Nc2cc(C)nc(C(C)(F)F)n2)c(OCc2cccc(F)c2)cn1` [Example 466, N-(4-((2-(1,1-difluoroethyl)-6-methylpyrimidin-4-yl)amino)-5-((3-fluorobenzyl)oxy)pyridin-2-yl)acetamide], the IC50 at JH2 domain of human Tyk2 (setting [1]) was no more than 10 nM; at Tyk2 (MSD), 10 to 100 nM.

Take `CC(=O)Nc1cc(Nc2cc(C)nc(C34CC(CO3)C4)n2)c(-c2ccn(C)n2)cn1` [Example 562, N-(4-((2-(2-oxabicyclo[2.1.1]hexan-1-yl)-6-methylpyrimidin-4-yl)amino)-5-(1-methyl-1H-pyrazol-3-yl)pyridin-2-yl)acetamide]: the IC50 at JH2 domain of human Tyk2 (setting [1]) was no more than 10 nM; on Tyk2 (MSD), 10 to 100 nM.

Consider `CC(=O)Nc1cc(Nc2cc(C)nc(C3CCOC3)n2)c(-c2ccn(C)n2)cn1` (stereo not drawn) [Example 555, N-(5-(1-methyl-1H-pyrazol-3-yl)-4-((6-methyl-2-(tetrahydrofuran-3-yl)pyrimidin-4-yl)amino)pyridin-2-yl)acetamide], for which the values for the IC50 at JH2 domain of human Tyk2 (setting [1]) and at Tyk2 (MSD) were no more than 10 nM and 10 to 100 nM, respectively.

With `COc1cnc(NC(C)=O)cc1Nc1cc(-c2cn(C)nc2C(F)(F)F)nc(C(C)(F)F)n1` [Example 395, N-(4-((2-(1,1-difluoroethyl)-6-(1-methyl-3-(trifluoromethyl)-1H-pyrazol-4-yl)pyrimidin-4-yl)amino)-5-methoxypyridin-2-yl)acetamide], the results for the IC50 at JH2 domain of human Tyk2 (setting [1]) and against Tyk2 (MSD) were no more than 10 nM and 100 to 1000 nM, respectively.

For the compound `CCOc1cnc(NC(C)=O)cc1Nc1cc(-c2cnn(CCN3CCOCC3)c2)nc(C(C)(F)F)n1` [Example 313, N-(4-((2-(1,1-difluoroethyl)-6-(1-(2-morpholinoethyl)-1H-pyrazol-4-yl)pyrimidin-4-yl)amino)-5-ethoxypyridin-2-yl)acetamide], the IC50 was no more than 10 nM on JH2 domain of human Tyk2 (setting [2]) and 10 to 100 nM against Tyk2 (MSD).

For the compound `CC(=O)Nc1cc(Nc2ccnc(C(C)(F)F)n2)c(-c2cnn(C3CCC3)c2)cn1` [Example 579, N-(5-(1-cyclobutyl-1H-pyrazol-4-yl)-4-((2-(1,1-difluoroethyl)pyrimidin-4-yl)amino)pyridin-2-yl)acetamide], the IC50 is 100 to 1000 nM on JH2 domain of human Tyk2 (setting [1]) and no less than 1000 nM on Tyk2 (MSD).

As to `CC(=O)Nc1cc(Nc2cc(C)nc(C(C)(F)F)n2)c(-c2cnn3c2OCCC3)cn1` [Example 535, N-(4-((2-(1,1-difluoroethyl)-6-methylpyrimidin-4-yl)amino)-5-(6,7-dihydrO5H-pyrazolo[5,1-b][1,3]oxazin-3-yl)pyridin-2-yl)acetamide], the half-inhibitory concentration (IC50) was 10 to 100 nM on JH2 domain of human Tyk2 (setting [1]) and no less than 1000 nM on Tyk2 (MSD).

Turning to `CC(=O)Nc1cc(Nc2cc(C3CC3)nc(C(C)(F)F)n2)c(-c2ccn(C)n2)cn1` [Example 206, N-(4-((6-cyclopropyl-2-(1,1-difluoroethyl)pyrimidin-4-yl)amino)-5-(1-methyl-1H-pyrazol-3-yl)pyridin-2-yl)acetamide], the IC50 on JH2 domain of human Tyk2 (setting [2]) and against Tyk2 (MSD) was no more than 10 nM throughout.

On to `CC(=O)Nc1cc(Nc2cc(C)nc(C(C)(F)F)n2)c(-c2cn(C)nn2)cn1` [Example 607, N-(4-((2-(1,1-difluoroethyl)-6-methylpyrimidin-4-yl)amino)-5-(1-methyl-1H-1,2,3-triazol-4-yl)pyridin-2-yl)acetamide], for which the IC50 on JH2 domain of human Tyk2 (setting [1]) and at Tyk2 (MSD) was no more than 10 nM throughout.

As for `CC(=O)Nc1cc(Nc2cc(C)nc(C(C)(F)F)n2)c(-c2ccnc(C)n2)cn1` [Example 174, N-(4-((2-(1,1-difluoroethyl)-6-methylpyrimidin-4-yl)amino)-5-(2-methylpyrimidin-4-yl)pyridin-2-yl)acetamide], the IC50 on JH2 domain of human Tyk2 (setting [2]) and at Tyk2 (MSD) was no more than 10 nM in each case.

Broadly, the IC50 is the concentration needed to halve the response being measured. Read a high IC50 as a need for much substance.

The values above are taken from patent US20260028365A1 (BIOGEN MA INC., priority 2022, published 2026).
